Where two headings read alike, the source gives them in different places.
Legend:
[1] = 2-PMPA level in paw pads by LC-MS/MS; assay type: in vivo, rat; details: 100 mg/kg i.p., 1 hour after administration, n=9, LC-MS/MS
Description: The presence of 2-PMPA in skin was determined. Animals were given 2-PMPA (100 mg/kg, i.p.), sacrificed 1 hour after compound administration and paw pads isolated for direct determination of 2-PMPA levels by LC-MS/MS. Since 2-PMPA detection by mass spectrometry has low sensitivity due to ion suppression, samples from animals that had received 100 mg/kg 2-PMPA rather than 10 mg/kg were analyzed to increase the probability of detecting 2-PMPA.
Briefly, frozen samples were thawed in a water bath at ambient temperature and subjected to a liquid extraction using MeOH. Samples were placed in brown glass vials containing 500 μL of 100% MeOH. […] The sample was transferred to a 250 μL polypropylene auto sampler vial sealed with a Teflon crimp cap, and a volume of 50 μL was injected onto the HPLC instrument for quantitative analysis using a temperature-controlled auto sampling device operating at 10° C.
Chromatographic analysis was performed using a Waters ACQUITY UPLC (Milford, Mass., USA). […] The column effluent was monitored using an AB SCIEX TRIPLE QUAD 5500 triple-quadrupole mass-spectrometric detector (Applied Biosystems, Foster City, Calif., USA). […] The daughter ions for 2-PMPA (m/z 191.1) and the internal standard (m/z 255.1) were monitored through the third quadrupole (Q3). […]

[2] = target: T1, GCP (Rattus norvegicus, UniProt P70627); assay type: in vivo; details: 1 hour after administration
T1 construct: Reconstituted pellet preparations from rat paw pads were used as source of GCP II; from tissue; host or cells: male Wistar rat paw pad skin (plantar hindpaw), 16000xg pellet; animals dosed i.p. with 2-PMPA
Description: A determination of GCP activity was carried out using male Wistar rat paw pads. Skin was collected from the planter hindpaw by 3 mm skin biopsy dissection and sonicated for 2 minutes in ice. The mixture was centrifuged for 2 minutes at 16000×g and the resulting pellet was reconstituted similar to the pellets obtained from the human skin dissections. Reconstituted pellet preparations from rat paw pads were used as source of GCP II and incubated with [^3H] NAAG, as described above for the human skin samples.
In order to determine if GCP activity in skin in vivo could be inhibited by peripheral administration of 2-PMPA, rats were administered vehicle (HEPES saline, pH 7, 50 mM) or 2-PMPA (1, 10 and 100 mg/kg, i.p.) using a dosing volume of 2 mL/kg. There were 10 animals in each group. Animals were sacrificed 1 hour after 2-PMPA or vehicle administration. […]

[3] = test system: GCP; test: GCP enzyme activity assay with human skin biopsy pellet ([3H]-NAAG cleavage); assay type: biochemical; details: 2-PMPA 1 μM added to assay mixture; [3H]-NAAG 70 nM, 37° C.
Description: Punch skin biopsies (3 mm) were obtained from the distal thigh of healthy human volunteers after anesthesia with 0.5 cc 2% lidocaine subcutaneous injection. Samples were placed in cold Tris buffer (pH 7.4) and GCP enzymatic activity was carried out within 1 hour of collection. The skin were homogenized, the homogenate was centrifuged and the pellet was used as source of GCP in the enzyme activity assay. Briefly, human skin biopsies were sonicated in Tris buffer (pH 7.4, 40 mM, 0.5 mL) for 1 minute in ice. The mixture was centrifuged for 2 minutes at 16000×g; the supernantant (containing endogenous […]) was removed and the resulting pellet (containing GCP) was reconstituted in 70 μL assay buffer (Tris pH 7.4, 40 mM containing 1 mM CoCl2) and used as source of GCP in the activity assay. Reconstituted pellet was then incubated with [^3H] […] The radioactivity in each vial corresponding to [^3H]-glutamate was determined via a Beckman LS-6000IC scintillation counter. Radioactivity values in dpm were converted to fmoles of glutamate using the relation 1 pCi/2.2 dpm and the specific activity of [^3H]-glutamate (same as that of [^3H]-NAAG: 1 fmole/50 pCi). As a result, if 16711 dpm [^3H]-glutamate were measured after incubating 10 mg tissue for 1 h, the normalized activity would be: 16711 dpm×(1 pCi/2.2 dpm)×(1 fmole/50 pCi)/10 mg tissue=15 fmole/h/mg tissue. […]

[4] = test system: GCP; test: GCP activity in rat sciatic nerve after peripheral (i.p.) administration; assay type: in vivo; details: 1 hour after administration
From the text: Sciatic nerve is the target tissue for GCP inhibitors in clinical trials for peripheral neuropathy and neuropathic pain. To obtain sciatic nerve samples, 1-2 cm incisions were made to the skin on top of the rat's mid-thigh so that sciatic nerve, gluteus superficialis muscle and biceps femoris muscle were exposed. The three were then separated and 5 mm of sciatic nerve was removed and analyzed as described above for the human skin and rat paw pad samples. GCP activity in sciatic nerve preparations from animals treated with 1, 10 and 100 mg/kg 2-PMPA was reduced to 92±11, 35±6 and 10±4% respectively compared to activity in sciatic nerve isolated from control animals (FIG. 3). Albeit to a different extent, GCP inhibition in sciatic nerve is attained at similar 2-PMPA doses (10 and 100 mg/kg i.p.) as in footpad tissue.

T1 sequence (P70627 whole entry): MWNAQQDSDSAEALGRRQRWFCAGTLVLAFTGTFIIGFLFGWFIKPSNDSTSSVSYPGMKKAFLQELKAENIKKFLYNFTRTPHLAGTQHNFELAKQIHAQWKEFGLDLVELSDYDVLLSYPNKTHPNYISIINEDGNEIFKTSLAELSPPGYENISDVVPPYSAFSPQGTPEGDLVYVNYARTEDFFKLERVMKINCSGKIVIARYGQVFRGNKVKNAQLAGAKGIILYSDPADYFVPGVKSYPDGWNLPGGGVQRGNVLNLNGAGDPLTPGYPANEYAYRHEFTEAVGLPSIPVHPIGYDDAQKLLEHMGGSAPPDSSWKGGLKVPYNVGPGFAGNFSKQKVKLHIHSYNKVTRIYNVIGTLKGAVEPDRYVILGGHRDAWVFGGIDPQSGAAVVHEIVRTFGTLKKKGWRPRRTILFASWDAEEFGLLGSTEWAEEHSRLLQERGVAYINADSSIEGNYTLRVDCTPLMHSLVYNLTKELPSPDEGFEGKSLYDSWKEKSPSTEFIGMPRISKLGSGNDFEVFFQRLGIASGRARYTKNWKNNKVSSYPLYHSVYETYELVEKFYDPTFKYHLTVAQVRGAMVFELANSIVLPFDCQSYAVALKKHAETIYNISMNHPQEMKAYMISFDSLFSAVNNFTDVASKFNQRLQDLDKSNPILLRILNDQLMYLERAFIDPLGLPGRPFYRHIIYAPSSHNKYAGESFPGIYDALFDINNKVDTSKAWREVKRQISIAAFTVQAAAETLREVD

## O=C(O)CCC(CP(=O)(O)O)C(=O)O (stereo not shown) [2-PMPA]
[1]
  2-PMPA concentration in paw pads: 38±5 μg/g tissue
[2]; 10 mg/kg i.p.
  GCP activity in paw pads compared to control animals: 60±11%
[2]; 100 mg/kg i.p.
  GCP activity in paw pads compared to control animals: 47±11%
[3]
  inhibition of GCP activity in human skin pellet preparations: 90%
[4]; 1 mg/kg i.p.
  GCP activity in sciatic nerve preparations compared to control animals: 92±11%
[4]; 10 mg/kg i.p.
  GCP activity in sciatic nerve preparations compared to control animals: 35±6%
[4]; 100 mg/kg i.p.
  GCP activity in sciatic nerve preparations compared to control animals: 10±4%
